{"source": "patent US20080287398A1", "about": "“COLD MENTHOL RECEPTOR-1 ANTAGONISTS” (priority 2007, published 2008)", "key": {"[1]": {"system": "rats", "test": "Reversal of icilin-induced behaviors (wet-dog shakes) in rats", "type": "in vivo", "details": "rat, 1 h post-icilin", "experimental": "In this paradigm, icilin-induced shaking was counted for 10 minutes followed by administration of a compound of Formula (I). The diminution of shaking behavior is represented as a percent inhibition relative to icilin-induced shakes in the absence of test compound administration, as described by the following formula: % Inhibition=[1−(WDS count following test compound dose/WDS count prior to test compound dose)]×100."}, "[2]": {"system": "mice", "test": "CFA-induced paw cold hypersensitivity (acetone-evoked paw licking)", "type": "in vivo", "details": "mouse; 60 mg/kg p.o.; time 30′; acetone licking duration vs vehicle", "experimental": "Prior to intraplantar CFA injection mice were placed individually in elevated observation chambers having wire mesh floors. Through the mesh floor a series of three applications of acetone (0.04 mL/application) was sprayed onto the bottom of the paw using a multidose syringe device. A positive response took the form of an abrupt withdrawal and licking of the paw. The cumulative duration of licking was recorded for each of the three trials which were then averaged to give the individual's response. Twenty-four hours following CFA injection acetone licking durations were markedly elevated implying a hypersensitivity to cooling. A test compound of Formula (I) was assessed for its ability to return acetone-evoked paw licking durations to pre-CFA levels (typically near zero) following systemic administration. Percent inhibition was calculated % inhibition=[1−(treatment licking duration/vehicle licking duration)]×100."}, "[3]": {"target": "T1, canine TRPM8 (Canis lupus familiaris, UniProt Q1A7N1)", "T1 construct": "expressed in transfected cells", "T1 sequence (Q1A7N1 1-1104)": "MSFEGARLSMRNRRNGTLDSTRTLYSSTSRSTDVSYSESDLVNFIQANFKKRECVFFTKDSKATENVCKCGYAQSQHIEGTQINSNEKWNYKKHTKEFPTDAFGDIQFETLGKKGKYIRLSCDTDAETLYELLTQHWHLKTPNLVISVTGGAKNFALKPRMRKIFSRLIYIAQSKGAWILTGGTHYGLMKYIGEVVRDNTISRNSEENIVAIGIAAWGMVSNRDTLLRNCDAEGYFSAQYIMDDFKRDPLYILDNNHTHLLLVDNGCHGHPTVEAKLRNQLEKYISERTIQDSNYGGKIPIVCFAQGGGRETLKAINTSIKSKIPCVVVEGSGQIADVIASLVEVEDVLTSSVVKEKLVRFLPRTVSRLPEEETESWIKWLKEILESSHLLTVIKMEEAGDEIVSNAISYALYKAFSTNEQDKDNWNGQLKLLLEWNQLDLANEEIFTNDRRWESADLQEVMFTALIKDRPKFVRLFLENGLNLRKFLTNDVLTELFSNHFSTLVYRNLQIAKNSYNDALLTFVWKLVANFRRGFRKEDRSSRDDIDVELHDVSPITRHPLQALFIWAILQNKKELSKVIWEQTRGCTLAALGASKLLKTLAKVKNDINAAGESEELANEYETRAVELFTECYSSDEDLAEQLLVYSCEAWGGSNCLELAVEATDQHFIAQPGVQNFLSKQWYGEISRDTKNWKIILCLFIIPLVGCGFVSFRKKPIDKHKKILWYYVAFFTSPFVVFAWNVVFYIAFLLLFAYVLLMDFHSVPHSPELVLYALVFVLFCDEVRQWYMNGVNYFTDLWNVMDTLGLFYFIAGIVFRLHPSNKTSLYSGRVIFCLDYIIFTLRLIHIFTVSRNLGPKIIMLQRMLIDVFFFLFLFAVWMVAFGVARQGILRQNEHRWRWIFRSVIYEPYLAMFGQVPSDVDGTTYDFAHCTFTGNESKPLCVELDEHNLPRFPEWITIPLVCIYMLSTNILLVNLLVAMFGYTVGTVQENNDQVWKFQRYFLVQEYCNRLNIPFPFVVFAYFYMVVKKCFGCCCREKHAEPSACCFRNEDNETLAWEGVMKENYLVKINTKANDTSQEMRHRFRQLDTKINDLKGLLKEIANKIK", "test": "TRPM8 patch clamp assay (whole-cell, HEK293 cells)", "type": "cell-based", "experimental": "For patch clamp experiments, HEK293 cells stably transfected with canine TRPM8 were cultured in DMEM supplemented with 10% fetal bovine serum, 100 units/ml penicillin, 100 μg/ml streptomycin and 1 mg/ml G418. Cells were maintained at 37° C. and in 5% CO2.\nThe extracellular solution contained (in mM): NaCl, 132; EGTA, 1; KCl, 5.4; MgCl2, 0.8; HEPES, 10; glucose, 10; pH=7.4. Recordings were performed using the conventional whole-cell patch clamp technique, 1-2 days after plating cells onto glass coverslips at densities appropriate for single cell recording. Currents were amplified by a patch clamp amplifier and filtered at 2 kHz (Axopatch 200B, Molecular Devices, Union City, Calif.). Menthol (100 μM) was applied to the cell at 0.5 ml/min via a gravity-fed perfusion system. Recordings involving menthol activation were performed at 22° C.\nIn experiments where temperatures were varied, temperature ramps were generated by cooling the perfusate in an in-line cooler (Model SC-20, Warner Instruments, Hamden, Conn.) controlled by a temperature controller (Model CL-100, Warner Instruments). The temperature in the vicinity of the recorded cell was measured with a custom-made miniature thermo-microprobe connected to a monitoring thermometer (Model TH-8, Physitemp, Clifton, N.J.), and sampled using Digidata 1322A and pClamp 9.0 (Molecular Devices), as were the currents concurrently measured in the whole-cell patch clamp mode. The current was continuously sampled (at 100 Hz) at a holding potential of −60 mV.\nCompounds were diluted from 10 mM DMSO stocks (stored at −20° C.) into an extracellular solution either containing 100 μM menthol or subjecting to cooling. Increasing concentrations of a compound were applied to a cell in a cumulative manner and concentration-dependent responses were measured after steady-state activation was achieved by either 100 μM menthol or cooling to 10° C. A saturating concentration of a reference antagonist was applied at the end of an experiment (either in the presence of 100 μM menthol or 10° C. temperature) to establish the baseline from which all the other measurements were subtracted.\nPercentage inhibition by a compound was calculated as follows: 100×(1−Icomp/I0); where Icomp and I0 are steady-state current amplitudes in either the presence or absence of a concentration of the compound."}, "[4]": {"system": "Male Sprague-Dawley rats", "test": "Cold pressor test in anesthetized rat", "type": "in vivo", "details": "6 mg/kg i.v., time 10′, mean arterial pressure change on forelimb ice", "experimental": "Compounds of Formula (I) can be tested in animals and humans for their ability to mitigate cardiovascular pressor responses evoked by cold exposure. The clinical cold pressor test assesses changes in blood pressure (BP) and cold pain perception during a 2-3 minute immersion of one hand into ice water. This test may be utilized to characterize analgesic compounds (Koltzenberg M et al. Pain. 2006, 126(1-3): 165-74) and to assess cold hypersensitivity (Desmeules J A et al. Arthritis Rheum. 2003, 48(5): 1420-9). A compound of Formula (I) was studied in an anesthetized rat cold pressor paradigm to determine whether TRPM8 antagonism would interfere with the blood pressure pressor response to cold stimulation of the forepaws. Male Sprague-Dawley rats (300-450 g) anesthetized with sodium pentobarbital were instrumented with a jugular catheter and an indwelling carotid artery pressure transducer. Vehicle (10% Solutol in water) or test compound was infused (1 mL/kg) over one minute through the intravenous catheter. […] Percent changes in mean arterial pressure in response to this cold stimulus were calculated for vehicle and test compound pretreatments. Percent inhibition attributed to treatment with test compound was then determined using the following formula: % Inhibition=[1−(cold evoked % change in BP post-test compound/cold evoked % change in BP post-vehicle)]×100."}, "[5]": {"system": "Male Sprague Dawley rats", "test": "Inhibition of icilin-induced wet-dog shakes in rats", "type": "in vivo", "details": "rat, 15′ pre icilin"}, "[6]": {"details": "IC50, mode of activation Menthol (100 μM), HEK293 cells stably transfected with canine TRPM8, 100 μM menthol, 22° C."}}, "data": [{"smiles": "CC(C)OP(=O)(OC(C)C)[C@@H](Cc1ccc(F)c(C(F)(F)F)c1)c1sc2ccccc2c1Br", "note": "[Cpd 242, (S)-[1-(3-Bromo-benzo[b]thiophen-2-yl)-2-(4-fluoro-3-trifluoromethyl-phenyl)-ethyl]-phosphonic acid diisopropyl ester]", "values": [{"measurement": "% Inhibition", "setting": "[1]; 30 mg/kg p.o.", "value": 79.9, "unit": "%"}, {"measurement": "% I", "setting": "[2]", "value": 84, "unit": "%"}, {"measurement": "IC50", "setting": "[3]; [6]", "value": 0.4, "unit": "nM"}, {"measurement": "% I (inhibition of cold-induced pressor response)", "setting": "[4]", "value": 54, "unit": "%"}]}, {"smiles": "CC(C)OP(=O)(OC(C)C)[C@@H](Cc1ccc(F)c(F)c1)c1sc2ccccc2c1Br", "note": "[Cpd 234, (S)-[1-(3-Bromo-benzo[b]thiophen-2-yl)-2-(3,4-difluoro-phenyl)-ethyl]-phosphonic acid diisopropyl ester]", "values": [{"measurement": "ED50", "setting": "[5]; po", "value": 24.3, "unit": "mg/kg"}, {"measurement": "% Inhibition", "setting": "[5]; 10 mg/kg p.o.", "value": 14.2, "unit": "%"}, {"measurement": "% Inhibition", "setting": "[5]; 30 mg/kg p.o.", "value": 68.0, "unit": "%"}, {"measurement": "% Inhibition", "setting": "[5]; 100 mg/kg p.o.", "value": 92.9, "unit": "%"}, {"measurement": "ED50", "setting": "[1]; po", "value": 28.5, "unit": "mg/kg"}, {"measurement": "% Inhibition", "setting": "[1]; 10 mg/kg p.o.", "value": 24.4, "unit": "%"}, {"measurement": "% Inhibition", "setting": "[1]; 30 mg/kg p.o.", "value": 56.1, "unit": "%"}, {"measurement": "% Inhibition", "setting": "[1]; 100 mg/kg p.o.", "value": 75.1, "unit": "%"}, {"measurement": "IC50", "setting": "[3]; IC50, mode of activation Cold (10° C.), HEK293 cells stably transfected with canine TRPM8, cooling to 10° C.", "value": 1.6, "unit": "nM"}, {"measurement": "IC50", "setting": "[3]; [6]", "value": 4.7, "unit": "nM"}]}]}
